US5646149A, “Compounds having both potent calcium antagonist and antioxidant activity and use thereof as cytoprotective agents” (Alcon Laboratories, Inc., priority 1995, dated 1997)
Read-outs that look alike come from different tables or passages of the source.

Columns and labels:
[1] = Phospholipid oxidation assay in liposomes; format: biochemical
Description: (§1) The DPPH assay is a chemical assay used to determine free radical scavenging activity. The retinal pieces, liver microsomes and phospholipid oxidation models measure antioxidant activity. The calcium binding assay is a measure of the affinity of the compound for a calcium antagonist binding site. The test procedures are described in greater detail below.
Antioxidant activity was measured using a phospholipid oxidation assay. Liposomes formed from dilineoleolyl phosphocholine were exposed to Fe^+3 /EDTA (167 μM) and ascorbate (167 μM). Oxidation was measured by conjugate diene formation monitored using UV spectroscopy (Biochim. Biophys. Acta., volume 1081, pages 181-187, (1991)). The IC50 was calculated using the following non-linear regression algorithm: Y=A/[1+(B/X)^c ], wherein A=maximum, B=IC50 and c=cooperativity or relative broadness of the curves. The minimum was assumed to be zero.

Singlet oxygen quenching = experiment: Singlet oxygen quenching; set-up: key: IA: inactive; settings: 37° C., ethanol/chloroform (50:50), 5 mM NDPO2
Description: The singlet oxygen quenching activity was studied in the following manner. Singlet oxygen was generated chemically by using thermodissociation of the endoperoxide 3,3'-(1,4-naphthylidene dipropionate), NPDO2. At 37° C., 3 ml ethanol/chloroform (50:50) were placed in a thermosrated cuvette. Reactions were started by injection of 5 mM NDPO2. The singlet oxygen quenching constants were calculated according to Stern-Volmer plots, from S0 /S=1+(Kq+KR)*[Q}*I, where S0, S--chemiluminesence (1270 nm) intensities in absence and in the presence of quenchers, respectively, [Q} is the quencher concentration and I is the lifetime of singlet oxygen (see J. Amer. Chem., volume 111, pages 2904-2914, (1989)).

bovine retinal pieces = experiment: Cytoprotection / lipid peroxidation (TBARS) in bovine retinal pieces after hypoxia-reoxygenation; format: cell-based
Description: The DPPH assay is a chemical assay used to determine free radical scavenging activity. The retinal pieces, liver microsomes and phospholipid oxidation models measure antioxidant activity. The calcium binding assay is a measure of the affinity of the compound for a calcium antagonist binding site. The test procedures are described in greater detail below. The cytoprotective effects of the compounds were measured using bovine retinal pieces. […] After 50 minutes of hypoxia, test agents were added to the media to allow 10 minutes for the drug to diffuse into the tissue prior to reoxygenation. Vehicle was added to the non-drug group. Following the incubation period, the tissue was reoxygenated for 1 h. Lipid peroxidation was assessed by the formation of thiobarbituric acid reacting substances (TBARS). The tissues were homogenized and added to TCA-TBA reagent and heated in the presence of BHT. The homogenate was filtered and the absorbance of the supernatant was measured spectrophotometrically. A double derivative technique was used to calculate the concentration of TBARS present in each sample. Quantitation was based on molar extinction coefficient of 1.56×10^5.

[2] = DPPH free radical scavenging assay; settings: 30 min
Description: as §1
Free radical scavenging activity was determined by measuring the test compound's ability to quench a ethanol solution of the free radical dye, 1,1-diphenyl-2-picrylhydrazyl, (DPPH). Test agents were dissolved in 95% ethanol and were added to a solution of DPPH in 95% ethanol. The final concentration of both the test compound and DPPH was 0.4 mMol. Absorbance was continuously recorded on a Perkin-Elmer Lamba 4B spectrophotometer. The percent quench was measured thirty minutes following the combination of the two solutions. (Free Rad. Res. Comms., volume 15, pages 91-100 (1991)).

Liver Microsomes = experiment: Liver microsome lipid peroxidation assay; format: biochemical
Description: as §1
Antioxidant activity was also measured using a liver microsome assay (Chem. Biol. Interactions., volume 74, pages 233-52, (1990)). Microsomes were incubated in a KPi buffer. Lipid oxidation was initiated with ADP(1 mM)/FeCl3 (10 μM) and NADPH regenerating system, containing NADP^+. The lipid peroxidation was assayed by the TBA test. Malondialdehyde (MDA) was estimated by the formation of thiobarbituric acid-reactive substances. MDA-equivalents were calculated using ε=156 mM^- cm^-1. IC50S were calculated using regression lines.

[3] = biological target: calcium antagonist binding site; experiment: Calcium binding, radioligand (nitrendipine) binding assay in rat brain cortices; settings: radiolabeled nitrendipine
Description: as §1
Calcium binding was measured using a radioligand binding assay. Brain cortices were removed from rats and a membrane fraction was prepared by standard techniques. The membrane preparation was incubated with radiolabeled nitrendipine. Non-specific binding was estimated in the presence of non-labeled nitrendipine. Membranes were filtered and washed and the filters were counted to determine radiolabelled […] Acad. Sci. USA, volume 79, pages 3656-3660 (1982), Life Sci., volume 30, pages 2191-2202, (1982).

retinal function of rats = experiment: Ocular function by electroretinography after light exposure; format: in vivo, rat; settings: ERG a-wave and b-wave after 48 h light exposure
Description: (§2) The retinoprotective properties of the compounds were measured in a light damage model. Photochemical lesions were induced in free moving unanesthetized albino rats by a single 48 h continuous broad-band florescent visible-light exposure. The rats were dosed by intraperitoneal injection 48 and 24 h prior to exposure, every 24 h during the exposure and once during the 24 h recovery period. Ocular tissues were obtained 24 h after light exposure. The tissues were analyzed using a quantitative computer image analyses system attached to the microscope. Retinal layer thickness, number of macrophages in the subretinal space, number of pyknotic nuclei in the outer nuclear layer, and retinal layer areas were parameters that were measured and statistically analyzed.
Ocular function was measured using electroretinography. Rats were anesthetized after a four-day recovery period in the dark. Flash ERGs were elicited by viewing a ganzfield. Electrical responses to a series of light flashes increasing in intensity were digitized to analyze response voltage-log intensity relationships.
Retinal function was assessed by measuring the electroretinogram after 48 h light exposure. The ERG allows differential examination of photoreceptor activity (a-wave) and inner nuclear layer function (b-wave) which is correlated to retinal morphology change.

retina of albino rats = experiment: Retinal light damage model (photochemical lesions, histology); format: in vivo, rat; settings: intraperitoneal, 48 h light exposure
Description: as §2
Control rats remaining on their normal 12 h light/12 h dark light cycle were devoid of retinal lesions upon microscopic examination and were assessed to have normal retinal function. […] The number of pyknotic photoreceptor nuclei was reduced by 50% in the outer nuclear layer compared to non-dosed animals.

[4] = value from Free Rad. Res. Comms., volume 15, pages 91-100 (1991); cited from earlier work
[5] = Fe^+3/EDTA (167 μM) and ascorbate (167 μM), conjugate diene formation, read-out: Phospholipid Oxidation IC50
[6] = Summary of Activity table, read-out: Phosopholipid Oxidation IC50
[7] = Bos taurus, Summary of Activity table, bovine retinal pieces
[8] = Summary of Activity table, test compound and DPPH 0.4 mMol
[9] = test compound and DPPH 0.4 mMol in 95% ethanol, thirty minutes
[10] = ADP (1 mM)/FeCl3 (10 μM), NADPH regenerating system, TBA test
[11] = Summary of Activity table, rat brain cortices, read-out: Ca+2 Binding IC50
[12] = rat brain cortices membrane, read-out: Ca^+2 Binding IC50

Compound | IC50 [1, 5] [µM] | IC50 [1, 6] [µM] | Singlet Oxygen Quenching Kq (Singlet oxygen quenching) | IC50 (bovine retinal pieces; [7]) [nM] | DPPH (% Quench) [2, 8] [%] | DPPH (% Quench) [2, 9] [%] | IC50 (Liver Microsomes; [10]) [µM] | IC50 (Liver Microsomes; Summary of Activity table) [µM] | IC50 [3, 11] [µM] | IC50 [3, 12] [µM] | preservation of retinal function (electroretinogram) (retinal function of rats) | Damage to photoreceptor cells (retina of albino rats) | RPE damage (retina of albino rats) | outer and inner segment damage (photoreceptor length) (retina of albino rats) | reduction of number of pyknotic photoreceptor nuclei in the outer nuclear layer (retina of albino rats; compared to non-dosed animals) [%] | Macrophages in the subretinal space, compared to control values (retina of albino rats; vs control values) | Macrophages in the subretinal space, compared to non-dosed light exposed rats (retina of albino rats; vs non-dosed light exposed rats) | DPPH (% Quench), literature value [4] [%] | IC50 (bovine retinal pieces; Summary of Activity table, bovine retinal pieces) [nM] | IC50 (bovine retinal pieces; bovine retina, hypoxia 1 h, agent added after 50 minutes, reoxygenation 1 h, TBARS) [nM]
Cc1cc(C(C)(C)C)c(O)c(C(C)(C)C)c1 [BHT] | 201 | 201 | IA | 500 | 64 | 64 | 1.1 | 1.1 |  |  |  |  |  |  |  |  |  |  |  | 
Cc1c(C)c2c(c(C)c1O)CCC(C)(CCN1CCN(C(c3ccc(F)cc3)c3ccc(F)cc3)CC1)O2 (stereo not drawn) [Compound No. 1, 1-(4,4'-difluorobenzhydryl)-4-(6-hydroxy-2,5,7,8-tetramethylchroman-2-ethyl)piperazine] | 3.6 | 3.6 |  | 10 | 99 | 99 | 1 | 1 | 1 to 10 | 1 to 10 | Significant preservation of retinal function | significantly minimized | greatly reduced | prevented outer and inner segment damage | 50 | not greater than control values | significantly reduced |  |  | 
Cc1c(C)c2c(c(C)c1O)CCC(C)(CN1CCN(C(c3ccc(F)cc3)c3ccc(F)cc3)CC1)O2 (stereo not drawn) [Compound No. 2, 1-(4,4'-difluorobenzhydryl)-4-(6-hydroxy-2,5,6,8-tetramethylchroman-2-methyl)piperazine dimaleate hemihydrate] | 0.18 |  | 1.6e+08 M⁻¹ s⁻¹ | 50 | 96 | 96 |  |  | 1 to 10 | 1 to 10 |  |  |  |  |  |  |  |  |  | 
Fc1ccc(C(c2ccc(F)cc2)N2CCN(C/C=C/c3ccccc3)CC2)cc1 [Flunarizine] |  |  | 5e+06 M⁻¹ s⁻¹ |  |  |  | 27.1 | 27.1 |  |  |  |  |  |  |  |  |  | 10 |  | 
Cc1c(C)c2c(c(C)c1O)CC[C@@](C)(CCC[C@H](C)CCC[C@H](C)CCCC(C)C)O2 [Vitamin E, α-tocopherol] | 4.2 | 4.2 | 1.2e+08 M⁻¹ s⁻¹ |  | 87 | 87 | 37 | 37 |  |  |  |  |  |  |  |  |  | 90 | 1 | 1
